Assay results: patent US12441706B2, “Protein degradation agent compound preparation method and application” (SHANGHAI JEMINCARE PHARMACEUTICALS CO., LTD., priority 2019, dated 2025)

Key:
[1] = In vivo pharmacokinetics in mice, intravenous injection and oral administration; parameters: species or system mouse; settings: male CD1 mice
Method: In this experimental example, in vivo pharmacokinetics in mice were evaluated by intravenous injection and oral administration.
Experimental methods and conditions: Male CD1 mice, aged 6-8 weeks, all animals were free access to food and water, and were given a single dose of the compound to be tested at 1 mg/Kg by intravenous injection (solvent 5% DMSO/15% Solutol/80% Saline), at 5 min, 15 min, 30 min, 1 hr, 2 hr, 4 hr, 8 hr, 24 hr, 48 h after drug administration, or oral gavage administration of 10 mg/kg (solvent 5% DMSO/10% Solutol/85% Saline), at 15 min, 30 min, 1 hr, 2 hr, 4 hr, 6 h, 8 hr, 24 hr, 48 h after administration, blood was collected from the orbit, no less than 50 μL for each sample, heparin sodium was used for anticoagulation, and then placed on ice after collection, and centrifuged within 1 hour to separate the plasma for testing. The plasma concentration of the drug was detected by liquid tandem mass spectrometry (LC/MS/MS), and the pharmacokinetic parameters were calculated by Phoenix WinNonlin software.

[2] = tested on: VCap cells; test: Inhibition of proliferation of VCap cells (Cell Titer Glo, 6 days); format: cell-based; settings: Homo sapiens, VCaP, 144 h
Method: Tumor cell line VCap FGC (ATCC catalog number CRL-2876) was cultured in DMEM (Gibco catalog number 11965-092) medium containing 10% FBS (Gibco catalog number 10099-141C), respectively. During the determination, Vcap cells were replaced with DMEM medium containing 5% FBS and 0.1 nM R1881 (Sigma catalog number R0908).
Vcap FGC cells were inoculated in a 384-well plate (Perkin Elmer catalog number 6007460) at a cell density of 1200 cells/well in a volume of 20 μL/well and incubated overnight in a carbon dioxide incubator (Thermo). The prepared compound solutions of different concentrations were added in a volume of 5 μL/well. The corresponding vehicle control was set at the same time. After being cultured in the incubator for 6 days, the cell plate and the contents were equilibrated to room temperature, and 25 μL of Cell Titer Glor (Promega catalog number G7573) was added to each well, shake and mix well, incubated in dark for 10-30 minutes, and the signal values were detected though Envision microplate reader (PerkinElmer).
The percentage inhibition rate of compound-treated wells was calculated from vehicle control wells on the plate, and the percentage inhibition rate data corresponding to different concentrations were fitted by GraphPad prism, and the IC50 values were calculated by 4-parameter nonlinear logic formula.

[3] = tested on: human prostate cancer VCaP cell subcutaneous xenograft tumor; test: In vivo pharmacodynamic study, human prostate cancer VCaP cell subcutaneous xenograft tumor CB17 SCID mouse model; settings: for tumor growth inhibition rate (TGI): castrated CB17 SCID mice, 24th day after administration
Method: Experimental animal: male mice of CB17 SCID strain, aged 6-8 weeks, weighing 18-22 grams, supplier: Beijing Weitong Lihua Laboratory Animal Technology Co., Ltd. Shanghai Branch, animal certificate number: 20170011005577. Animals were reared in the experimental environment for 7 days after arrival and the experiment was started.
Experimental method: Human prostate cancer cell VCaP cells (ATCC-CRL-2876) were cultured in vitro in monolayer, and the culture conditions were DMEM medium with 20% fetal bovine serum, 100 U/mL penicillin and 100 μg/mL streptomycin, cultured in a 5% CO2 incubator at 37° C. Conventional digestion with trypsin-EDTA was performed twice a week for passage. When the cell saturation was 80%-90% and the number reached the requirement, the cells were collected, counted, and inoculated. 0.2 mL (10× 10^6 cells+Matrigel) VCaP cells were subcutaneously inoculated into the left upper limb of each mouse, and castration was performed 33 days after cell inoculation. When the average tumor volume reached 119 mm^3, the drugs were administered in groups, and the doses of compound 14 were set to four groups: 1 mg/kg, 3 mg/kg, 10 mg/kg and 30 mg/kg.
Daily observation of experimental animals: the health status and death of animals were monitored every day. Routine examinations included observing the effects of tumor growth and drug treatment on the daily behavior of animals, such as behavioral activities, food and water intake (visual observation only), and weight changes (body weight measured three times a week), physical signs or other abnormal conditions.
Tumor measurements and experimental indicators: Experimental indicators were to examine whether tumor growth was inhibited, delayed or cured. Tumor diameters were measured with vernier calipers three times a week.
The calculation formula of tumor volume is: V=0.5a×b2, where a and b represented the long diameter and short diameter of the tumor, respectively. The antitumor effect of the compound was evaluated by TGI (%) or relative tumor proliferation rate T/C (%). TGI (%), reflecting the tumor growth inhibition rate. Calculation of TGI (%): TGI (%)=[1−(average tumor volume at the end of administration of a certain treatment group−average tumor volume at the beginning of administration of the treatment group)/(average tumor volume at the end of treatment in the vehicle control group−average tumor volume at the beginning of treatment in the vehicle control group)]×100%. Relative tumor proliferation rate T/C (%): the calculation formula is as follows: T/C %=TRTV/CRTV×100% (TRTV: RTV in the treatment group; CRTV: RTV in the negative control group). The relative tumor volume (RTV) was calculated according to the results of tumor measurement, and the formula is RTV=Vt/V0, where V0 is the average tumor volume measured at the time of group administration (i.e. d0), and Vt is the average tumor volume at a certain measurement, and TRTV and CRTV were taken on the same day. After the experiment, the tumor weight would be detected, and the percentage of T/Cweight would be calculated. Tweight and Cweight represent the tumor weight of the administration group and the vehicle control group, respectively.
Statistical analysis: Statistical analysis included the mean and standard error (SEM) of tumor volume at each time point for each group. […] T-test was used for comparison between two groups, and one-way ANOVA was used for comparison between three or more groups. […]

[4] = mouse, intravenous administration 1 mg/kg, plasma
[5] = mouse, oral administration 10 mg/kg, plasma

CC1(C)C(=O)N(c2ccc(C#N)c(Cl)c2)c2ccc(-c3ccc(N4CC(CN5CCN(c6ccc7c(c6)C(=O)N(C6CCC(=O)NC6=O)C7=O)CC5)C4)nc3F)cc21 (stereo not drawn) [Compound 14]
F ([1]; oral administration 10 mg/kg vs intravenous 1 mg/kg): 68.6%
AUC(0-inf) [1, 4]: 10400 ng·h/mL
clearance [1, 4]: 1.61 mL/min/kg
half-life [1, 4]: 1220 min
AUC(0-inf) [1, 5]: 71100 ng·h/mL
Cmax [1, 5]: 2650 ng/mL
half-life [1, 5]: 1070 min
Emax [2]: 94%
IC50 [2]: 67 nM
tolerance (body weight, FIG. 2) ([3]; 10 mpk and 30 mpk, CB17 SCID mice): better tolerance than Reference substance 1
tumor growth inhibition rate (TGI) ([3]; dose 10 mpk): 96%
tumor growth inhibition rate (TGI) ([3]; dose 30 mpk): 96%
